Measurements as given in patent publication US20020064770A1, “Binding compounds and methods for identifying binding compounds” (priority 2000, published 2002).

Experiments:
CCR5 [1] = molecular target: T1, CCR5 (Homo sapiens, UniProt P51681); design: endogenous in cells; host or cells: monocytes; details: cited from earlier work
R5 HIV-1 = details: clinical isolates and a laboratory strain; peripheral blood mononuclear cells; cited from earlier work
T-cell line-tropic HIV-1 = details: cited from earlier work
CCR5 [2] = molecular target: T1, CCR5; details: CCR5-expressing Chinese hamster ovary cells; cited from earlier work
M-tropic HIV-1 strains = details: cited from earlier work
CCR5 [3] = molecular target: T1, CCR5; design: endogenous in cells; host or cells: monocytes; details: monocytes; cited from earlier work
CCR5 [4] = test: Binding affinity of identified peptide ligands for CCR5 (displacement of [125I]-MIP-1β); design: species or system human
From the text: In order to determine those ligands that had the highest affinity to the target receptor, generally, over 200 peptide libraries were screened to determine each library's respective inhibition binding. […] In additional aspects of the invention, once preferred amino acid residues are identified due to high preference values by CCR5 at the degenerate positions of the library, specific peptides are synthesized by the same methods as employed for library synthesis. In one embodiment of the invention, a high preference value is greater than 1. The value is determined by subtracting the control value from the sample value and dividing by the reference value. In a preferred embodiment of the invention, the preference value is greater than 1.2. In a highly preferred embodiment of the invention, the preference value is greater than 2. After synthesis of the identified peptide sequence, the peptide is purified by, for example, High Performance Liquid Chromatography (“HPLC”) and compositions are confirmed by Matrix-Assisted Laser Desorption Ionization-Time of Flight Mass Spectrometer (“MALDI-TOF MS”) and Edman Sequencing. Generally, relative affinities may be measured by modifying the radiolabel binding assay used in receptor purification.
Relative affinities were measured by modifying the radiolabel binding assay used in receptor purification.

PDZ = details: binding domain PDZ; cited from earlier work
SH2 (src) = molecular target: T2, SH2 (src) (Homo sapiens, UniProt P12931); details: binding domain SH2 (src); cited from earlier work
T2 construct: SH2 (src)

14-3-3 = details: binding domain 14-3-3; cited from earlier work
CCR5 [5] = details: value obtained by Receptor Biology; applicant's membrane preparations comparable; read-out: Kd for MIP1-β binding; cited from earlier work

T1 sequence (P51681 whole entry): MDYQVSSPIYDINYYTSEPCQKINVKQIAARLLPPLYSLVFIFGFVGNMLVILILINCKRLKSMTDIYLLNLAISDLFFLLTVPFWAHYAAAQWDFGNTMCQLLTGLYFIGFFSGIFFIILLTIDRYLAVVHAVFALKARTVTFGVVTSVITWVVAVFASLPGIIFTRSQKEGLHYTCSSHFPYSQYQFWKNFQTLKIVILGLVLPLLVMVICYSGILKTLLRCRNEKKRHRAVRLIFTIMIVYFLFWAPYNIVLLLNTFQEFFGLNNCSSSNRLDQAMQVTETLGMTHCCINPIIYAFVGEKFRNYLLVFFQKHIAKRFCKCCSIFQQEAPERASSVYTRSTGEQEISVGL

## Cc1ccc(-c2ccc3c(c2)C=C(C(=O)Nc2ccc(C[N+](C)(C)C4CCOCC4)cc2)CCC3)cc1.[Cl-] [TAK-779]
CCR5 [1]
  concentration blocking CCR5-mediated Ca2+ signaling: nanomolar
R5 HIV-1
  concentration inhibiting replication of R5 HIV-1: 1.6 to 3.7 nM
T-cell line-tropic HIV-1
  activity against T-cell line-tropic HIV-1: inactive
CCR5 [2]
  antagonism of RANTES binding to CCR5: antagonizes

## Aminooxypentane (AOP)-RANTES[2-68]
M-tropic HIV-1 strains
  inhibition of infection of macrophages: potently inhibits
CCR5 [3]
  antagonist potency on CCR5 function: subnanomolar

## K-K-K-A-R-S-L-I-W-R-P-A-K-A-K-K-K (KKKARSLIWRPAKAKKK)
CCR5 [4]
  affinity and action on CCR5: enhanced affinity and action

## KKKKETDV
PDZ
  Kd: 42 nM

## M-A-R-S-L-I-W-R-P-A-K-A-K-K-A (MARSLIWRPAKAKKA)
CCR5 [4]
  affinity and action on CCR5: enhanced affinity and action

## PYBEIY
SH2 (src)
  Kd: 100 nM

## RLSHpSLP
14-3-3
  Kd: 55.7 nM

## cyclo(M-Y-A-T-R-W-K-N) (MYATRWKN; cyclic)
CCR5 [4]
  affinity and action on CCR5: enhanced affinity and action

B1: MIP-1β: natural CCR5 ligand, used as [125I] radioligand (protein, UniProt P13236 24-92, looked up)
C-C motif chemokine 4: APMGSDPPTACCFSYTARKLPRNFVVDYYETSSLCSQPAVVFQTKRSKQVCADPSESWVQEYVYDLELN
modifications: ends and bridges not checked; also: [125I] radiolabel
CCR5 [5]
  Kd: < 1 nM
